Test systems include A549; HCT-15; HT-29; IGROV-1; K562; KM12; MCF7; MOLT-4; NCI-H522; NCI/ADR-RES; SF-295; SK-MEL-5; SK-OV-3; SN12C; SNB-19; SNB-75; T47D; TK-10; UO-31.
Assay in all cases: inhibition of tumour cell growth, NCI panel, 48 h

Structures are written as SMILES.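 In this assay, cells in 96-well plates receive the compound at five concentrations for 48 hours. Endpoints are linearly interpolated between the surrounding concentrations. GI50: concentration for 50% inhibition of growth.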 Activity calls are given as the source filed them. Rule as the data show it: active = GI50 up to about 1.1 µM and inactive = higher.

With `CN(C)c1ccc(C(=O)NCCCCCCC(=O)NO)cc1`, the GI50 in the assay with A549 is 0.514 µM (active); with HCT-15, 1.27 µM; in the assay with HT-29, 0.349 µM (active); in the assay on IGROV-1 it was 0.553 µM (active); in the assay with K562, 0.337 µM (active); in the assay on KM12 it was 0.684 µM (active). Moreover, the GI50 with MCF7 is 0.237 µM (active); in the assay on MOLT-4, 0.241 µM (active); in the assay with NCI-H522, 0.11 µM (active); in the assay with NCI/ADR-RES it was 0.14 µM (active); in the assay with SF-295 it was 0.326 µM (active); in the assay with SK-MEL-5 it was 0.289 µM (active). In addition, the GI50 is 0.299 µM (active) in the assay with SK-OV-3; 0.378 µM (active) with SN12C; 2 µM (inactive) in the assay on SNB-19; 0.251 µM (active) in the assay on SNB-75; 0.216 µM (active) in the assay on T47D; 0.33 µM (active) in the assay with TK-10. The GI50 in the assay on UO-31 was 0.557 µM (active).

Regarding `C=C(C)C(=O)N1c2ccc(OC)cc2CC1C(=O)OCC` (centres undefined), the GI50 with A549 is > 100 µM (inactive); in the assay with HCT-15, > 100 µM; with HT-29, > 100 µM (inactive); with IGROV-1 it was > 100 µM (inactive); in the assay on K562, > 100 µM (inactive); in the assay on KM12 it was > 100 µM (inactive). Also, the GI50 with MCF7, in the assay on MOLT-4, in the assay with NCI-H522, with NCI/ADR-RES, with SF-295 and in the assay with SK-MEL-5 was > 100 µM (inactive) throughout. The GI50 is > 100 µM (inactive) in the assay with SK-OV-3; > 100 µM (inactive) in the assay with SN12C; > 100 µM (inactive) in the assay on SNB-19; 45.2 µM (inactive) in the assay on SNB-75; 26.7 µM (inactive) with T47D; > 100 µM (inactive) with TK-10. Also, the GI50 with UO-31 was > 100 µM (inactive).

Consider `O=c1c2ccccc2n2nnc3ccc(NCCCNCCNCCCNc4ccc5nnn6c7ccccc7c(=O)c4c56)c1c32`, for which the GI50 was 0.612 µM (active) in the assay on A549; 3.33 µM with HCT-15; 0.121 µM (active) in the assay on HT-29; 0.57 µM (active) in the assay on IGROV-1; 0.215 µM (active) with K562; 3.24 µM (inactive) in the assay with KM12. Also, the GI50 in the assay with MCF7 was 0.447 µM (active); with MOLT-4 it was 0.0582 µM (active); in the assay on NCI-H522, 0.234 µM (active); in the assay on NCI/ADR-RES it was 12.6 µM (inactive); with SF-295, 5.89 µM (inactive); in the assay on SK-MEL-5 it was > 50 µM (inactive). The GI50 was > 20.3 µM (inactive) in the assay with SK-OV-3; 0.457 µM (active) in the assay on SN12C; 6.84 µM (inactive) with SNB-19; 7.89 µM (inactive) with SNB-75; > 37.4 µM (inactive) in the assay with T47D; 0.832 µM (active) in the assay on TK-10. In the assay with UO-31, the GI50 was 2.86 µM (inactive).

Consider `CN(CC1(CO)CCC1)c1cc(Cl)nc(N)n1`, for which the GI50 in the assay on A549 is > 100 µM (inactive); in the assay with HCT-15 it was > 100 µM; with HT-29, > 100 µM (inactive); in the assay on IGROV-1 it was > 100 µM (inactive); in the assay on K562, > 100 µM (inactive); in the assay with KM12, > 100 µM (inactive). In addition, the GI50 in the assay on MCF7, with MOLT-4, in the assay on NCI-H522, with NCI/ADR-RES, in the assay with SF-295 and with SK-MEL-5 was > 100 µM (inactive) in each case. In addition, the GI50 with SK-OV-3 was > 100 µM (inactive); in the assay with SN12C it was > 100 µM (inactive); in the assay with SNB-19, > 100 µM (inactive); in the assay on SNB-75, 78.5 µM (inactive); in the assay on T47D, > 100 µM (inactive); in the assay on TK-10 it was > 100 µM (inactive). The GI50 in the assay on UO-31 is > 100 µM (inactive).

As to `O=C1/C(=C\c2ccco2)Oc2ccccc21`, the GI50 is > 100 µM (inactive) in the assay on A549; > 100 µM with HCT-15; > 100 µM (inactive) in the assay on HT-29; 99.1 µM (inactive) in the assay on IGROV-1; > 100 µM (inactive) in the assay on K562; > 100 µM (inactive) with KM12. The GI50 is 29.4 µM (inactive) with MCF7; 23.7 µM (inactive) in the assay with MOLT-4; > 100 µM (inactive) in the assay on NCI-H522; > 100 µM (inactive) with NCI/ADR-RES; > 100 µM (inactive) with SF-295; > 100 µM (inactive) in the assay with SK-MEL-5. Also, the GI50 with SK-OV-3 was > 100 µM (inactive); in the assay on SN12C it was > 100 µM (inactive); with SNB-19 it was > 100 µM (inactive); in the assay with SNB-75 it was > 100 µM (inactive); in the assay with T47D, 72.3 µM (inactive); in the assay with TK-10, > 100 µM (inactive). The GI50 in the assay on UO-31 is 76.2 µM (inactive).

In the case of `COc1ccc(/N=C2\C(=S)N(c3ccc(OC)cc3)/C(=N/S(=O)(=O)c3ccccc3)N2c2ccccc2)cc1`, the GI50 with A549 was 34.9 µM (inactive); in the assay with HCT-15, 5.75 µM; with HT-29, 19.9 µM (inactive); in the assay with IGROV-1, 12.9 µM (inactive); with K562, 1.02 µM (active); in the assay on KM12 it was 13.2 µM (inactive). In addition, the GI50 in the assay with MCF7 is 17 µM (inactive); in the assay on MOLT-4, 0.953 µM (active); in the assay on NCI-H522 it was 1.64 µM (inactive); in the assay with NCI/ADR-RES, 23.6 µM (inactive); in the assay on SF-295, 22.2 µM (inactive); in the assay on SK-MEL-5 it was 4.57 µM (inactive). The GI50 was > 39.9 µM (inactive) in the assay with SK-OV-3; 15.1 µM (inactive) in the assay on SN12C; 36.9 µM (inactive) in the assay on SNB-19; 17.3 µM (inactive) in the assay with SNB-75; 1.09 µM (active) with T47D; 14.7 µM (inactive) in the assay on TK-10. The GI50 in the assay on UO-31 was 3.59 µM (inactive).

For the molecule `O=C(CN1CCN(c2ccccn2)CC1)N1CCCn2c1nc1ccccc1c2=O`, the GI50 is > 100 µM (inactive) with A549; > 100 µM with HCT-15; > 100 µM (inactive) in the assay with HT-29; > 100 µM (inactive) in the assay with IGROV-1; > 100 µM (inactive) in the assay with K562; > 100 µM (inactive) in the assay with KM12. The GI50 with MCF7, with MOLT-4, with NCI-H522, in the assay with NCI/ADR-RES, in the assay on SF-295 and in the assay on SK-MEL-5 was > 100 µM (inactive) in each case. The GI50 in the assay with SK-OV-3, in the assay with SN12C, in the assay on SNB-19, in the assay on SNB-75, with T47D and in the assay on TK-10 was > 100 µM (inactive) each time. The GI50 in the assay with UO-31 was > 100 µM (inactive).

On to `CN/C(N)=N/N=C1/C(=O)Nc2ccccc21`, for which the GI50 in the assay with A549 was > 100 µM (inactive); in the assay with HCT-15, > 100 µM; in the assay with HT-29, > 100 µM (inactive); in the assay on IGROV-1 it was > 100 µM (inactive); with K562 it was > 100 µM (inactive); with KM12, > 100 µM (inactive). The GI50 with MCF7, in the assay on MOLT-4, in the assay on NCI-H522, in the assay on NCI/ADR-RES, in the assay on SF-295 and with SK-MEL-5 was > 100 µM (inactive) each time. Also, the GI50 with SK-OV-3, in the assay on SN12C, in the assay with SNB-19, with SNB-75, with T47D and in the assay on TK-10 was > 100 µM (inactive) throughout. The GI50 in the assay on UO-31 was > 100 µM (inactive).

On to `NNc1ccccc1Cl`, for which the GI50 is > 100 µM (inactive) in the assay with A549; > 100 µM in the assay with HCT-15; > 100 µM (inactive) in the assay with HT-29; > 100 µM (inactive) in the assay with IGROV-1; 4.34 µM (inactive) in the assay on K562; > 100 µM (inactive) with KM12. The GI50 in the assay with MCF7 was > 100 µM (inactive); with MOLT-4, 36.2 µM (inactive); in the assay with NCI-H522, > 100 µM (inactive); in the assay on NCI/ADR-RES, > 100 µM (inactive); with SF-295, 27.3 µM (inactive); with SK-MEL-5, 30.5 µM (inactive). The GI50 in the assay with SK-OV-3 is > 100 µM (inactive); in the assay on SN12C, > 100 µM (inactive); in the assay on SNB-19, > 100 µM (inactive); with SNB-75, > 100 µM (inactive); in the assay on T47D, 59.8 µM (inactive); with TK-10, > 100 µM (inactive). The GI50 in the assay on UO-31 is 89.1 µM (inactive).

Turning to `N=C(N)C(/N=N\c1ccccc1)C(N)=O` (centres undefined), the GI50 is > 100 µM (inactive) in the assay on A549; 83.8 µM in the assay with HCT-15; > 100 µM (inactive) in the assay with HT-29; > 100 µM (inactive) in the assay on IGROV-1; 35.9 µM (inactive) in the assay with K562; 59.4 µM (inactive) in the assay on KM12. Moreover, the GI50 was > 100 µM (inactive) with MCF7; > 100 µM (inactive) in the assay with MOLT-4; > 100 µM (inactive) in the assay with NCI-H522; > 100 µM (inactive) in the assay with NCI/ADR-RES; 62.8 µM (inactive) with SF-295; > 100 µM (inactive) in the assay with SK-MEL-5. In addition, the GI50 with SK-OV-3 is > 100 µM (inactive); in the assay with SN12C, > 100 µM (inactive); in the assay on SNB-19, > 100 µM (inactive); with SNB-75 it was > 100 µM (inactive); in the assay on T47D, 57.7 µM (inactive); with TK-10, 96.4 µM (inactive). In addition, in the assay with UO-31, the GI50 was > 100 µM (inactive).

On to `OCCCCCNc1nc(O)c2[nH]cnc2n1`, for which the GI50 was > 10 µM (inactive) with A549; > 100 µM in the assay on HCT-15; > 100 µM (inactive) with HT-29; > 100 µM (inactive) in the assay with IGROV-1; > 100 µM (inactive) with K562; > 100 µM (inactive) in the assay on KM12. The GI50 in the assay with MCF7 is > 10 µM (inactive); in the assay with MOLT-4 it was > 100 µM (inactive); with NCI-H522, > 100 µM (inactive); in the assay on NCI/ADR-RES, > 100 µM (inactive); with SF-295, > 10 µM (inactive); in the assay with SK-MEL-5, > 100 µM (inactive). Further, the GI50 is > 10 µM (inactive) in the assay on SK-OV-3; > 100 µM (inactive) with SN12C; > 100 µM (inactive) in the assay on SNB-19; > 100 µM (inactive) with SNB-75; > 100 µM (inactive) with T47D; > 100 µM (inactive) with TK-10. For the same molecule, the GI50 with UO-31 is > 100 µM (inactive).

The values above are taken from ChEMBL document CHEMBL1201862, “PubChem BioAssay data set” (2004).
